The values that follow come from PubChem BioAssay AID256 (DTP/NCI, 2004).

For the assay, the system named is CD2F1 mice, L1210 leukemia ip, survival T/C. Description: NCI In Vivo Anticancer Drug Screen. Data for tumor model L1210 Leukemia (intraperitoneal) in CD2F1 (CDF1) mice. Particulars: endpoint: mean survival time, higher = longer survival. Here is the method:
The antitumor activity of compounds was measured in mice bearing transplantable tumors. Survival or tumor size were measured and the results are expressed as the measurement made in the treated group (T) divided by the measurement made in the vehicle treated control group (C). The tumor model used in this assay is L1210 Leukemia (intraperitoneal) in CD2F1 (CDF1) mice

[1] abbreviates: dose: 100.0 mg/kg/injection, schedule: Q01DX009 (ip), vehicle: saline with Tween-80.
Setting [2] is: dose: 100.0 mg/kg/injection, schedule: Q04DX003 (ip), vehicle: saline with Tween-80.
Where [3] appears, read: dose: 200.0 mg/kg/injection, schedule: Q01DX009 (ip), vehicle: saline with Tween-80.
Where [4] appears, read: dose: 200.0 mg/kg/injection, schedule: Q04DX003 (ip), vehicle: saline with Tween-80.
[5] abbreviates: dose: 400.0 mg/kg/injection, schedule: Q01DX009 (ip), vehicle: saline with Tween-80.
The mark [6] stands for this setting: dose: 400.0 mg/kg/injection, schedule: Q04DX003 (ip), vehicle: saline with Tween-80.
The mark [7] stands for this setting: dose: 100.0 mg/kg/injection, schedule: Q01DX001 (ip), vehicle: saline with Tween-80.
Setting [8] is: dose: 200.0 mg/kg/injection, schedule: Q01DX001 (ip), vehicle: saline with Tween-80.
[9] abbreviates: dose: 400.0 mg/kg/injection, schedule: Q01DX001 (ip), vehicle: saline with Tween-80.
The mark [10] stands for this setting: dose: 50.0 mg/kg/injection, schedule: Q01DX009 (ip), vehicle: saline with Tween-80.
Where [11] appears, read: dose: 100.0 mg/kg/injection, schedule: Q04DX003 (ip), vehicle: saline.
Setting [12] is: dose: 200.0 mg/kg/injection, schedule: Q04DX003 (ip), vehicle: saline.
The mark [13] stands for this setting: dose: 400.0 mg/kg/injection, schedule: Q04DX003 (ip), vehicle: saline.
Setting [14] is: dose: 6.25 mg/kg/injection, schedule: Q04DX003 (ip), vehicle: saline with Tween-80.
Setting [15] is: dose: 12.5 mg/kg/injection, schedule: Q04DX003 (ip), vehicle: saline with Tween-80.
The mark [16] stands for this setting: dose: 100.0 mg/kg/injection, schedule: Q01DX001 (ip), vehicle: Klucel (hydroxypropylcellulose) (HPC).

Where “and” joins values, the source holds several entries; their conditions need not be identical. Equal values may be shown once. Toxic doses and inconclusive results are not listed.

For `O=C1NC(=O)c2cccc3cccc1c23`, the T/C was 100 % of control under setting [1]; 98 % of control under setting [2]; 96 % of control under setting [3]; 102 % of control under setting [4]; 94 % of control under setting [5]; 100 % of control under setting [6].

In the case of `O=C(COc1cccc(Cl)c1)NCc1ccccc1NC(=O)c1ccc(S(=O)(=O)F)cc1`, the T/C under setting [7] was 91 % of control, the T/C under setting [8] was 95 % of control and the T/C under setting [9] is 91 % of control.

Turning to `CC1(C)N=C(N)N=C(N)N1c1ccc(CCCCc2ccc(Cl)cc2Cl)cc1`, the T/C is 98 % of control (dose: 6.25 mg/kg/injection, schedule: Q01DX009 (ip), vehicle: saline with Tween-80); 96 % of control (dose: 6.25 mg/kg/injection, schedule: Q04DX003 (ip), vehicle: saline sonified); 102 % of control (dose: 12.5 mg/kg/injection, schedule: Q01DX009 (ip), vehicle: saline with Tween-80); 98 % of control (dose: 12.5 mg/kg/injection, schedule: Q04DX003 (ip), vehicle: saline sonified); 100 % of control (dose: 25.0 mg/kg/injection, schedule: Q04DX003 (ip), vehicle: saline sonified).

With `O=C(/C=C/c1ccccc1)NC(=S)Nc1cc(Cl)ccc1Cl`, the T/C reads like this: under setting [10], 95 % of control; under setting [7], 90 % of control; under setting [1], 112 % of control and 98 % of control and 100 % of control; (dose: 100.0 mg/kg/injection, schedule: Q04DX002 (ip), vehicle: saline with Tween-80) 95 % of control and 102 % of control; under setting [2], 104 % of control; under setting [8], 100 % of control. Moreover, the T/C runs as follows: under setting [3], 97 % of control and 98 % of control and 105 % of control; (dose: 200.0 mg/kg/injection, schedule: Q04DX002 (ip), vehicle: saline with Tween-80) 95 % of control and 110 % of control; under setting [4], 104 % of control; under setting [9], 105 % of control; under setting [5], 115 % of control and 98 % of control and 100 % of control; (dose: 400.0 mg/kg/injection, schedule: Q04DX002 (ip), vehicle: saline with Tween-80) 105 % of control and 111 % of control. Moreover, under setting [6], the T/C was 106 % of control.

Take `CSc1nc(N)cc(N)n1`: the T/C was 98 % of control under setting [1]; 98 % of control under setting [2]; 95 % of control under setting [3]; 97 % of control under setting [4]; 100 % of control under setting [5]; 102 % of control under setting [6].

In the case of `CC(=O)Nc1ccc([N+](=O)[O-])c2ccccc12`, the T/C (dose: 37.5 mg/kg/injection, schedule: Q04DX002 (ip), vehicle: saline with Tween-80) is 101 % of control; the T/C (dose: 75.0 mg/kg/injection, schedule: Q04DX002 (ip), vehicle: saline with Tween-80) was 101 % of control; the T/C (dose: 150.0 mg/kg/injection, schedule: Q04DX002 (ip), vehicle: saline with Tween-80) is 104 % of control.

`CCC1(CC)C=CC(Br)CC1(CC)CC` (stereo not drawn): the T/C reads like this: under setting [1], 101 % of control; under setting [3], 113 % of control; under setting [5], 98 % of control.

Turning to `CC(c1ccccc1)c1ccc(O)cc1` (stereo not drawn), the T/C is 103 % of control under setting [2], 93 % of control under setting [4] and 91 % of control under setting [6].

Turning to `CCCCn1c(Cc2ccccc2)nc2c1C(=O)c1ccccc1C2=O`, the T/C is 103 % of control under setting [11], 101 % of control under setting [12] and 98 % of control under setting [13].

`O=C(O)C(=O)O.[NH-]C(c1ccccc1)C([NH-])c1ccccc1.[Pt+2]` (stereo not drawn): the T/C is 118 % of control under setting [14] and 124 % of control under setting [15].

Consider `CC12CCC3(CO3)CC1CCC1C2CCC2(C)C1CCC21CO1` (stereo not drawn), for which the T/C (dose: 75.0 mg/kg/injection, schedule: Q01DX001 (ip), vehicle: saline with Tween-80) was 104 % of control; the T/C (dose: 150.0 mg/kg/injection, schedule: Q01DX001 (ip), vehicle: saline with Tween-80) is 106 % of control; the T/C (dose: 300.0 mg/kg/injection, schedule: Q01DX001 (ip), vehicle: saline with Tween-80) was 113 % of control.

On to `COc1ccc(/C=C/c2ccc3ccccc3n2)c(OC)c1`, for which the T/C under setting [1] is 96 % of control; the T/C under setting [2] is 96 % of control; the T/C under setting [3] is 102 % of control; the T/C under setting [4] was 96 % of control; the T/C under setting [5] was 95 % of control; the T/C under setting [6] was 96 % of control.

For the compound `Cc1cc2oc(=O)cc(N3CCOCC3)c2c(=O)o1`, the T/C is 110 % of control under setting [2] and 109 % of control under setting [4].

As for `C(=Nc1cccc2ccccc12)c1ccc2c(c1)OCO2`, the T/C by setting is: under setting [16], 98 % of control; (dose: 100.0 mg/kg/injection, schedule: Q01DX009 (ip), vehicle: Klucel (hydroxypropylcellulose) (HPC)) 91 % of control; (dose: 200.0 mg/kg/injection, schedule: Q01DX001 (ip), vehicle: Klucel (hydroxypropylcellulose) (HPC)) 93 % of control; (dose: 200.0 mg/kg/injection, schedule: Q01DX009 (ip), vehicle: Klucel (hydroxypropylcellulose) (HPC)) 96 % of control; (dose: 400.0 mg/kg/injection, schedule: Q01DX001 (ip), vehicle: Klucel (hydroxypropylcellulose) (HPC)) 96 % of control; (dose: 400.0 mg/kg/injection, schedule: Q01DX009 (ip), vehicle: Klucel (hydroxypropylcellulose) (HPC)) 96 % of control.

As to `COCCCNCCCN1CC1`, the T/C (dose: 16.62 mg/kg/injection, schedule: Q01DX009 (ip), vehicle: saline) is 115 % of control; the T/C (dose: 31.25 mg/kg/injection, schedule: Q01DX009 (ip), vehicle: saline) was 107 % of control; the T/C (dose: 62.5 mg/kg/injection, schedule: Q01DX009 (ip), vehicle: saline) was 94 % of control.

With `C/C=C\c1ccc(OCCOC(=O)Nc2ccc(Cl)cc2OC)c(OC)c1`, the T/C reads like this: under setting [10], 89 % of control; under setting [1], 89 % of control; under setting [3], 93 % of control.

As to `CNC(=O)NC1C(CO)OC2OC(C)(C)OC21` (stereo not drawn), the T/C by setting is: under setting [11], 96 % of control; under setting [12], 94 % of control; under setting [13], 96 % of control.

On to `Cc1cccc(C(=O)C(=O)c2cccc(C)c2C)c1C`, for which the T/C is, setting by setting: (dose: 75.0 mg/kg/injection, schedule: Q01DX001 (ip), vehicle: other) 93 % of control; (dose: 150.0 mg/kg/injection, schedule: Q01DX001 (ip), vehicle: other) 93 % of control; (dose: 300.0 mg/kg/injection, schedule: Q01DX001 (ip), vehicle: other) 100 % of control.

`CCC(C=O)(CC)CCC#N`: the T/C runs as follows: (dose: 25.0 mg/kg/injection, schedule: Q01DX001 (ip), vehicle: Klucel (hydroxypropylcellulose) (HPC)) 96 % of control; (dose: 50.0 mg/kg/injection, schedule: Q01DX001 (ip), vehicle: Klucel (hydroxypropylcellulose) (HPC)) 103 % of control; under setting [16], 87 % of control; under setting [7], 103 % of control; under setting [8], 100 % of control; under setting [9], 100 % of control.

On to `CC(O)C[As](=O)(O)c1ccc(Cl)cc1` (stereo not drawn), for which the T/C is, setting by setting: under setting [14], 95 % of control; under setting [15], 107 % of control; (dose: 25.0 mg/kg/injection, schedule: Q04DX003 (ip), vehicle: saline with Tween-80) 107 % of control.

As for `Cc1c2cc[n+](CCN3CCCCC3)cc2c(C)c2c1[nH]c1ccc(O)cc12`, the T/C is, setting by setting: (dose: 1.56 mg/kg/injection, schedule: Q01DX009 (ip), vehicle: suspension in saline) 160 % of control; (dose: 12.5 mg/kg/injection, schedule: Q01DX009 (ip), vehicle: saline) 150 % of control; (dose: 12.5 mg/kg/injection, schedule: Q01DX009 (ip), vehicle: suspension in saline) 121 % of control; (dose: 50.0 mg/kg/injection, schedule: Q01DX009 (ip), vehicle: saline) 188 % of control; (dose: 50.0 mg/kg/injection, schedule: Q01DX009 (ip), vehicle: suspension in saline) 92 % of control.

On to `Nc1ccc(OCc2nc(N)nc(N)c2-c2ccc(Cl)cc2)cc1`, for which the T/C is, setting by setting: (dose: 50.0 mg/kg/injection, schedule: Q01DX001 (ip), vehicle: saline with Tween-80) 95 % of control; under setting [7], 101 % of control; under setting [8], 93 % of control.
